Experimental data: patent US12312347B2, “Azaindole derivative and use thereof as FGFR and C-Met inhibitor” (Wuxi Life Fountain Biotech Co., Ltd, priority 2018, dated 2025)
pIC50: −log10 of the molar value. Counter-ions that a name gives are not always drawn.

biological target: T1, human FGFR4 (Homo sapiens, UniProt P22455); assay: 33P isotope-labeled kinase activity test, FGFR4; assay type: biochemical; settings: ATP 100 μM
T1 construct: purchased Invitrogen P3054
Method: (§1) The inhibitory activities of the tested compounds on human FGFR1, FGFR4, and c-Met were evaluated by the IC50 values measured using ^33P isotope-labeled kinase activity test (Reaction Biology Corp).
(§2) Buffer condition: 20 mM Hepes (pH 7.5), 10 mM MgCl2, 1 mM EGTA, 0.02% Brij35, 0.02 mg/mL BSA, 0.1 mM Na3VO4, 2 mM DTT, 1% DMSO.
(§3) Test procedure: The test compounds were dissolved in DMSO at room temperature and formulated to be 10 mM solutions for later use. The substrates were dissolved in freshly prepared buffer, and kinases to be tested were added and mixed well. The test compounds dissolved in DMSO were added to the above mixed reaction solutions by acoustic technique (Echo 550). The concentration of the compound in reaction solution was 1 μM, […], 3.91 nM, 0.977 nM, 0.244 nM, 0.061 nM, 0.0153 nM, 0.00381 nM or 10 μM, 2.50 μM, 0.62 μM, 0.156 μM, 39.1 nM, 9.8 nM, 2.4 nM, 0.61 nM, 0.15 nM, 0.038 nM. After incubation for 15 min, ^33P-ATP (activity 0.01 μCi/μL, corresponding concentrations are listed in Table 1) was added to start the reaction. Supplier item number, batch number, as well as the concentration information in the reaction solution of FGFR1, FGFR4, c-Met and substrates thereof are listed in Table 1. […] The kinase activity data are expressed by comparison between the kinase activity in the test compound group and the kinase activity in the blank group (containing DMSO only). IC50 values were obtained by curve fitting with Prism4 software (GraphPad).

T1 sequence (P22455 22-802): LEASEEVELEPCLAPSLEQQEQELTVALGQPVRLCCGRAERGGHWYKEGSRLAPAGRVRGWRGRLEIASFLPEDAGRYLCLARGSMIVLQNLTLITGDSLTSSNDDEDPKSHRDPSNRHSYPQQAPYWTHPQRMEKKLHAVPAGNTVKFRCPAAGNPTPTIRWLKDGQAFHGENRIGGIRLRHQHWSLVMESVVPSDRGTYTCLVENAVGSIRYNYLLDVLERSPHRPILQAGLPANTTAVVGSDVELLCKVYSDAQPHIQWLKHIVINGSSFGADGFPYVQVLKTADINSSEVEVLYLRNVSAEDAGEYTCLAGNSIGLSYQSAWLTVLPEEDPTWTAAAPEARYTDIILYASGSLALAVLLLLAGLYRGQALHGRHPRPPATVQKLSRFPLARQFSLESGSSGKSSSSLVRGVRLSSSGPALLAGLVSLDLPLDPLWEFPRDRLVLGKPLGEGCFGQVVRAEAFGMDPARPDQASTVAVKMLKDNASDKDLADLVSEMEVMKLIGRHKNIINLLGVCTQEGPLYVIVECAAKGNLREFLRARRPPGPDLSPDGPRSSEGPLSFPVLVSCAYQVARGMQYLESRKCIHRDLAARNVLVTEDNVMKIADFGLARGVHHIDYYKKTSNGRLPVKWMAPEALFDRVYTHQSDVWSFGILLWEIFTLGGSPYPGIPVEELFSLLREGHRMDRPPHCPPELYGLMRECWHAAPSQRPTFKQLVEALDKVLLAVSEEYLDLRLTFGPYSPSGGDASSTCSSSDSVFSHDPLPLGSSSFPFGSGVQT

SMILES | pIC50
COc1cc(OC)c(F)c(Cc2c[nH]c3ncc(-c4cn(C5CCN(C)CC5)nc4C#N)cc23)c1F [Hydrochloride of embodiment 43] | 7.21
CCN1CCC(n2cc(-c3cnc4[nH]cc(Cc5c(F)c(OC)cc(OC)c5F)c4c3)cn2)CC1 [Trifluoroacetate salt of embodiment 12] | 7.44
CCN1CCC(n2cc(-c3cnc4[nH]c(C)c(Cc5c(F)c(OC)cc(OC)c5F)c4c3)cn2)CC1 [Hydrochloride of embodiment 74] | 7.25
COc1nc(OC)c(F)c(Cc2c[nH]c3ncc(-c4cnn(CCS(C)(=O)=O)c4)cc23)c1F [Trifluoroacetate salt of embodiment 77] | 8.47
CCN1CCC(n2cc(-c3cnc4[nH]cc(Cc5c(F)c(OC)cc(OC)c5F)c4c3)c(C)n2)CC1 [Hydrochloride of embodiment 37] | 7.28
CCN1CCC(c2cncc(-c3cnc4[nH]cc(Cc5c(F)c(OC)cc(OC)c5F)c4c3)n2)CC1 [Hydrochloride of embodiment 65] | 8.57
COc1cc(OC)c(F)c(Cc2c[nH]c3ncc(-c4cnn(CCS(C)(=O)=O)c4)cc23)c1F [Trifluoroacetate salt of embodiment 76] | 8.41
CCN1CCC(n2ccc(-c3cnc4[nH]cc(Cc5c(F)c(OC)nc(OC)c5F)c4c3)n2)CC1 [Embodiment 75] | 7.98
COc1cc(OC)c(F)c(Cc2c[nH]c3ncc(-c4cnn(C5CN(C(C)=O)C5)c4)cc23)c1F [Trifluoroacetate salt of embodiment 26] | 7.45
CCN1CCC(n2cc(-c3cnc4[nH]cc(Cc5c(F)ccc(OC)c5F)c4c3)cn2)CC1 [Embodiment 38] | 6.22
COc1cc(OC)c(F)c(Cc2c[nH]c3ncc(-c4cnn(C5CCNCC5)c4)nc23)c1F [Trifluoroacetate salt of embodiment 5] | 7.69
COc1cc(OC)c(F)c(Cc2n[nH]c3ncc(-c4cnn(C5CCNCC5)c4)cc23)c1F [Hydrochloride of embodiment 2] | 6.86
CCN1CCC(n2cc(-c3cnc4[nH]cc(Cc5c(F)ccc(OC)c5F)c4c3)c(C#N)n2)CC1 [Embodiment 45] | 6.45
COc1cc(OC)c(F)c(Cc2n[nH]c3ncc(-c4cnn(CCO)c4)cc23)c1F [Trifluoroacetate salt of embodiment 1] | 7.40
COc1cc(OC)c(F)c(Cc2c[nH]c3ncc(-c4cn(C)nc4C#N)cc23)c1F [Trifluoroacetate salt of embodiment 44] | 7.49
COc1cc(OC)c(F)c(Cc2c[nH]c3ncc(-c4cnn(C5CCN(S(C)(=O)=O)CC5)c4)cc23)c1F [Trifluoroacetate salt of embodiment 18] | 7.53
COc1ccc(F)c(Cc2c[nH]c3ncc(-c4cn(C5CCNCC5)nc4C)cc23)c1F [Hydrochloride of embodiment 36] | 6.16
COc1cc(OC)c(F)c(Cc2c[nH]c3ncc(-c4cnn(C5CN(CCO)C5)c4)cc23)c1F [Trifluoroacetate salt of embodiment 27] | 7.88
CCN1CCC(n2cc(-c3cnc4[nH]nc(Cc5c(F)c(OC)cc(OC)c5F)c4c3)cn2)CC1 [Hydrochloride of embodiment 3] | 6.83
COc1cc(OC)c(F)c(Cc2c[nH]c3ncc(-c4cn(C5CCNCC5)nc4C)cc23)c1F [Embodiment 32] | 7.87
COc1cc(OC)c(F)c(Cc2c[nH]c3ncc(-c4cnn(CCCNC(C)C)c4)cc23)c1F [Hydrochloride of embodiment 72] | 7.27

biological target: T2, human c-Met (Homo sapiens, UniProt P08581); assay: 33P isotope-labeled kinase activity test, c-Met; assay type: biochemical; settings: ATP 10 μM
T2 construct: purchased Invitrogen PV3143
T2 sequence (P08581 25-1390): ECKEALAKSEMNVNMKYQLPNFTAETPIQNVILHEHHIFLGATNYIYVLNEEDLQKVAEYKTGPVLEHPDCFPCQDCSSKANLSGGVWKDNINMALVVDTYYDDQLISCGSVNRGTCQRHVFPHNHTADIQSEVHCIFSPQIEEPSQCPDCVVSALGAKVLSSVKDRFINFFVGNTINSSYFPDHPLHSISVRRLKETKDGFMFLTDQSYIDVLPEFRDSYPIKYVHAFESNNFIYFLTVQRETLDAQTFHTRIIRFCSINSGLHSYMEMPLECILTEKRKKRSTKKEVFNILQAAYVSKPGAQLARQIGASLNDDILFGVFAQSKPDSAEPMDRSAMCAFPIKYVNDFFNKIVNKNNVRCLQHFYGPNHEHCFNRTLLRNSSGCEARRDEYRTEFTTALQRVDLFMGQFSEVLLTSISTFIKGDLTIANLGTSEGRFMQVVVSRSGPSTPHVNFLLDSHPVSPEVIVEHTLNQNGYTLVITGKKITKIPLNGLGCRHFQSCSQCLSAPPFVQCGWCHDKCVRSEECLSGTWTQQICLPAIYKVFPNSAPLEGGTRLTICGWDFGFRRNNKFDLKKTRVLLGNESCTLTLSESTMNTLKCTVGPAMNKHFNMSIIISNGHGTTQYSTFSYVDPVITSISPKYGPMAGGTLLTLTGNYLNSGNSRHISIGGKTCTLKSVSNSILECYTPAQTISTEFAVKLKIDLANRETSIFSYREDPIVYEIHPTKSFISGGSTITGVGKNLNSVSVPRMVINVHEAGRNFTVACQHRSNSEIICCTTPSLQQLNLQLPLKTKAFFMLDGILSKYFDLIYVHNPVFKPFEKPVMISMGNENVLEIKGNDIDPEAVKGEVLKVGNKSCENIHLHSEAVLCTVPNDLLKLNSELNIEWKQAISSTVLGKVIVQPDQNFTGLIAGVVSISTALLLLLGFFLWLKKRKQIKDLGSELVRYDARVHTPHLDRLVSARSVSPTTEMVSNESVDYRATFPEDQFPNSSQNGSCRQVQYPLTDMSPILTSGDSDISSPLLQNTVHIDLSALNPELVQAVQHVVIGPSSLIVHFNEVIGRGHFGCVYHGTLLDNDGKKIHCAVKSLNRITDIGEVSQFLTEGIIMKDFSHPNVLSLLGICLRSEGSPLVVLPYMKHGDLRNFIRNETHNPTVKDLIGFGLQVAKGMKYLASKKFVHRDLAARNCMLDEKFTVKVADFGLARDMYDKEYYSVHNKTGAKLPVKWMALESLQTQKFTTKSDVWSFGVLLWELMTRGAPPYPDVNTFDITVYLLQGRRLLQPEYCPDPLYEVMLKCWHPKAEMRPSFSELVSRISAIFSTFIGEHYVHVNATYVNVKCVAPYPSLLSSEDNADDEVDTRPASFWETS
Method: as §1, §2, §3

SMILES | pIC50
COc1cc(OC)c(F)c(Cc2c[nH]c3ncc(-c4cn(C5CCN(C)CC5)nc4C#N)cc23)c1F [Hydrochloride of embodiment 43] | 7.24
CCN1CCC(n2cc(-c3cnc4[nH]cc(Cc5c(F)c(OC)cc(OC)c5F)c4c3)cn2)CC1 [Trifluoroacetate salt of embodiment 12] | 8.50
CCN1CCC(n2cc(-c3cnc4[nH]c(C)c(Cc5c(F)c(OC)cc(OC)c5F)c4c3)cn2)CC1 [Hydrochloride of embodiment 74] | 8.38
CCN1CCC(n2cc(-c3cnc4[nH]cc(Cc5c(F)c(OC)cc(OC)c5F)c4c3)c(C)n2)CC1 [Hydrochloride of embodiment 37] | 7.48
CCN1CCC(c2cncc(-c3cnc4[nH]cc(Cc5c(F)c(OC)cc(OC)c5F)c4c3)n2)CC1 [Hydrochloride of embodiment 65] | 6.87
CCN1CCC(n2ccc(-c3cnc4[nH]cc(Cc5c(F)c(OC)nc(OC)c5F)c4c3)n2)CC1 [Embodiment 75] | 8.49
COc1cc(OC)c(F)c(Cc2c[nH]c3ncc(-c4cnn(C5CN(C(C)=O)C5)c4)cc23)c1F [Trifluoroacetate salt of embodiment 26] | 7.86
CCN1CCC(n2cc(-c3cnc4[nH]cc(Cc5c(F)ccc(OC)c5F)c4c3)cn2)CC1 [Embodiment 38] | 8.04
COc1cc(OC)c(F)c(Cc2c[nH]c3ncc(-c4cnn(C5CCNCC5)c4)nc23)c1F [Trifluoroacetate salt of embodiment 5] | 7.33
COc1cc(OC)c(F)c(Cc2n[nH]c3ncc(-c4cnn(C5CCNCC5)c4)cc23)c1F [Hydrochloride of embodiment 2] | 8.11
CCN1CCC(n2cc(-c3cnc4[nH]cc(Cc5c(F)ccc(OC)c5F)c4c3)c(C#N)n2)CC1 [Embodiment 45] | 8.04
COc1cc(OC)c(F)c(Cc2n[nH]c3ncc(-c4cnn(CCO)c4)cc23)c1F [Trifluoroacetate salt of embodiment 1] | 5.89
COc1cc(OC)c(F)c(Cc2c[nH]c3ncc(-c4cn(C)nc4C#N)cc23)c1F [Trifluoroacetate salt of embodiment 44] | 6.72
COc1cc(OC)c(F)c(Cc2c[nH]c3ncc(-c4cnn(C5CCN(S(C)(=O)=O)CC5)c4)cc23)c1F [Trifluoroacetate salt of embodiment 18] | 7.79
COc1ccc(F)c(Cc2c[nH]c3ncc(-c4cn(C5CCNCC5)nc4C)cc23)c1F [Hydrochloride of embodiment 36] | 7.56
COc1cc(OC)c(F)c(Cc2c[nH]c3ncc(-c4cnn(C5CN(CCO)C5)c4)cc23)c1F [Trifluoroacetate salt of embodiment 27] | 8.17
CCN1CCC(n2cc(-c3cnc4[nH]nc(Cc5c(F)c(OC)cc(OC)c5F)c4c3)cn2)CC1 [Hydrochloride of embodiment 3] | 7.12
COc1cc(OC)c(F)c(Cc2c[nH]c3ncc(-c4cn(C5CCNCC5)nc4C)cc23)c1F [Embodiment 32] | 8.21
COc1cc(OC)c(F)c(Cc2c[nH]c3ncc(-c4cnn(CCCNC(C)C)c4)cc23)c1F [Hydrochloride of embodiment 72] | 7.15
